Key:
J89 = experiment: SM111 treatment of latent J89 cells, latency reversal as HIV-1-GFP+ cells; format: cell-based; conditions: 100 µM, several consecutive passages, HIV-1-GFP+ cells by flow cytometry (Figure 7A)
Experimental: All results were depicted as medians ± IQR. […].
For SM111 treatment, the HIV-1 latent Jurkat cell line, J89, was treated with SM111 compound, a Vpu-inhibitor, SM113, a negative compound, and DMSO for several consecutive passages. 1x10^6 cells were plated and treated with 100 µM of all compounds for 4 days. Then, one fourth (25%) of the cells were passaged into new media containing the respective treatment and the rest were used to measure HIV-1 latency reactivation (GFP) and cell viability. An untreated control well was kept as internal negative control.

J89Δvpu cells [1] = conditions: 96 hrs, proportion of Zombie NIR-/activated Caspase 3- cells against concentration
Experimental: (§1) Latency reactivation was traced by quantifying the proportion of HIV-1-GFP+ cells. […] The treatment of J89Δvpu cells with increasing concentrations of sulfasalazine was measured at 96 hrs. Cells shown are gated on viable cells (Zombie NIR- gate) and on negative activated caspase 3 to exclude any apoptotic or dead cell. […] (B) NF-κB inhibitor, sulfasalazine, was added at several concentrations to the J89Cas9AVpu cell line and the proportion of GFP- cells (latent) was measured by flow cytometry at 96 hrs. (gating strategy: (A): FSC/SSC → Zombie NIR- → HIV-1-GFP. (B) FSC/SSC → Zombie NIR negative → Caspase 3 active negative → HIV-1-GFP).

J89Δvpu cells [2] = experiment: cells; conditions: 96 h, read-out: EC50 for HIV-1 latency re-establishment
Experimental: as §1

NF-κB (human) = NF-κB (human) (UniProt Q04206); experiment: cell-based or functional assay
NF-κB (human), sequence (Q04206 whole entry): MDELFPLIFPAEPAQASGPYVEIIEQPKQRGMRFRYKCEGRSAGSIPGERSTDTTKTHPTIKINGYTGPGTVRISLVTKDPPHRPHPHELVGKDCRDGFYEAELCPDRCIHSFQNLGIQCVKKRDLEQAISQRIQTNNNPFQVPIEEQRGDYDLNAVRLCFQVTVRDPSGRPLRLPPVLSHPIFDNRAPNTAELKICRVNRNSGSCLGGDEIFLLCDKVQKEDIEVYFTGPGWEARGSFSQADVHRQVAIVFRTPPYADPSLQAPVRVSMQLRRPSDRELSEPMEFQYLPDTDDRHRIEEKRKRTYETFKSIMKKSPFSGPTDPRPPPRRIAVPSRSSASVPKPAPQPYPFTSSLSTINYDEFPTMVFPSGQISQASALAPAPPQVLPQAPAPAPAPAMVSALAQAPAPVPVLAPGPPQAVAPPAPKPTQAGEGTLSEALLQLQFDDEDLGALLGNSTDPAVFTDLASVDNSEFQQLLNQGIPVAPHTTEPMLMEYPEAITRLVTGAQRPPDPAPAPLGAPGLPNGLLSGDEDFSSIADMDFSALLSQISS

## N=C(N)NC(=O)c1cccnc1N1CCCCCC1 [SM111, 1-(2-(azepan-1-yl)nicotinoyl)guanidine]
J89
  reversal of HIV-1 latency: able to reverse HIV-1 latency

## O=C(O)c1cc(/N=N/c2ccc(S(=O)(=O)Nc3ccccn3)cc2)ccc1O [sulfasalazine]
J89Δvpu cells [1]
  LD50: > 0.50 mM
J89Δvpu cells [2]
  EC50: 400 µM

## HIV-1 89.6 Vpu R45K mutant
NF-κB (human)
  activation of NF-κB in a dual luciferase reporter assay (HEK293T, constitutively active IKKβ, increasing amounts of Vpu expression plasmid), EC50: > 38 ng

## HIV-1 Vpu protein (strain 89.6), wild type
NF-κB (human)
  activation of NF-κB in a dual luciferase reporter assay (HEK293T, constitutively active IKKβ, increasing amounts of Vpu expression plasmid), EC50: 5.2 ng

Source: patent publication EP3636781A1, “NOVEL SCREENING ASSAYS FOR IDENTIFYING COMPOUNDS RESERSING HIV-1 LATENCY” (Heinrich-Pette-Institut Leibniz-Institut für Experimentelle …, priority 2018, dated 2020)
